ChEMBL document CHEMBL1145695, “Biologically active acylglycerides from the berries of saw-palmetto (Serenoa repens)” (J Nat Prod, 1997)
Values after ≈ are worked out from the molar mass of the structure shown.

How the values were obtained:
[1] = Toxicity against brine shrimp; type: organism-based; settings: artemia, in vivo
PC-3 = experiment: Cytotoxicity against human PC3 cells after 7 days by MTT assay; type: functional; settings: PC-3, 168 h, read-out: ED50 (the source's name)
A498 = experiment: Cytotoxicity against human A498 cells after 7 days by MTT assay; type: functional; settings: A498, 168 h, read-out: ED50 (the source's name)
MIA PaCa-2 = experiment: Cytotoxicity against human MIAPaCa2 cells after 7 days by MTT assay; type: functional; settings: MIA PaCa-2, 168 h, read-out: ED50 (the source's name)

CCCCCCCCCCCCCC(=O)OCC(O)CO (stereo unspecified)
LC50 [1]: 53.3 µg/mL (≈ 176 µM) | EC50 (PC-3): 8.84 µg/mL (≈ 29.2 µM) | EC50 (A498): 3.58 µg/mL (≈ 11.8 µM) | EC50 (MIA PaCa-2): 1.87 µg/mL (≈ 6.18 µM)

COc1cccc2c1C(=O)c1c(O)c3c(c(O)c1C2=O)C[C@@](O)(C(=O)CO)C[C@@H]3O[C@H]1C[C@H](N)[C@H](O)[C@H](C)O1 [DOXORUBICIN]
EC50 (PC-3): 0.0119 µg/mL (≈ 0.0219 µM) | EC50 (A498): 0.0122 µg/mL (≈ 0.0224 µM) | EC50 (MIA PaCa-2): 0.0392 µg/mL (≈ 0.0721 µM)

CCCCCCCCCCCC(=O)OCC(O)CO (stereo unspecified) [GLYCEROL MONOLAURATE]
LC50 [1]: 79.2 µg/mL (≈ 289 µM) | EC50 (PC-3): 23.3 µg/mL (≈ 84.8 µM) | EC50 (A498): 3.77 µg/mL (≈ 13.7 µM) | EC50 (MIA PaCa-2): 2.33 µg/mL (≈ 8.49 µM)
